Results published in US20220274935A1, “PHARMACEUTICAL COMPOSITION FOR PREVENTING OR TREATING BONE DISEASES” (INDUSTRY FOUNDATION OF CHONNAM NATIONAL UNIVERSITY, priority 2019, published 2022).

How the values were obtained:
preosteoclasts = test: MTT assay for cytotoxicity assessment (cell viability); type: cell-based, mouse; conditions: MCSF 30 ng/mL, concentration of 10 uM
Description: MTT Assay for Cytotoxicity Assessment
After treatment of preosteoclasts with 35D35 or 35D3 (=PPOA) (1-10 uM), cell viability was evaluated. Specifically, 1×10^4 cells per well were put into a 96-well plate, and only MCSF (30 ng/mL) and PPOA were cultured by day under the indicated concentration conditions. Thereafter, a cell viability assay reagent (DoGen, EZ-3000) was used with 1/10 of the volume of the medium for treatment, and then the cells were incubated at 37° C. for 30 minutes and observed at […]. […] That is, it was confirmed that there was no cytotoxicity.

[1] = system: osteoclast differentiation of monocytes isolated from the mouse bone marrow; test: Osteoclast differentiation inhibitory ability through TRAP staining and assay (RANKL-induced monocytes); type: cell-based; conditions: for degree of osteoclast differentiation by TRAP staining: treated together with RANKL, compared to other derivatives, FIG. 1
Description: The bone marrow of a 10-week-old female mouse was isolated from the hip bone, femur and tibia, followed by culturing the same in α-MEM medium (Gibco, 12561-056, 10% fetal bovine serum, 1% penicillin/streptomycin) containing macrophage colony stimulating factor (M-CSF, PeproTech, 315-02, 30 ng/ml) for 3 days in order to isolate only monocytes. The isolated monocytes were treated with receptor activator of nuclear factor kappa B ligand (RANKL, PeproTech, 315-11, 50 ng/ml) to induce osteoclast differentiation. During RANKL treatment, each compound (35D35, 35D5, 35D3, and 35D8) was used for treatment and the cells were cultured for 3 or 5 days so as to confirm the degree of osteoclast differentiation.
1×10^4 monocytes isolated from the mouse bone marrow were put into a 96-well plate and treated with each compound (35D35, 35D5, 35D3, and 35D8) together with RANKL, thereby confirming the effects of each compound on osteoclast differentiation ability. Using the TRAP activity assay kit (Cosmo Bio, PMC-AK04F-COS), the activity of tartrate-resistant acid phosphatase (TRAP) with increased expression during osteoclast differentiation was confirmed. […] After staining, multinuclear cells formed during osteoclast differentiation were confirmed under a microscope. Further, each well was photographed and a differentiation area ratio per total area was determined using Image J software.
Further, the effects of the 35D35 compound having excellent osteoclast production inhibitory ability with respect to osteoclast differentiation period was investigated. Specifically, BMM was divided into 5 groups (Ctrl, Period I to IV), and cultured for 4 days in a culture medium containing 30 ng/mL M-CSF and 50 ng/mL RANKL. BMMs in Period I to IV groups were exposed to 1 μM 35D35 for 24 hours on different days, respectively. After 4 days, the cells of each group were fixed, followed by TRAP staining, and then, the presence of osteoclasts was confirmed.

[2] = system: RANKL-induced F-actin belt formation in BMM; test: F-actin ring (belt) formation ability of differentiated osteoclasts; type: cell-based, mouse; conditions: for inhibition of RANKL-induced F-actin belt formation: FIG. 5
Description: In order to confirm the activity of differentiated osteoclasts, F-actin ring formation ability was measured. Specifically, BMM was seeded on a 12 mm cover glass with or without compounds (35D3: 6 μM, 35D5 and 35D35: 2 μM), followed by M-CSF and LANKL treatment. After the osteoclasts were formed in the control, the osteoclasts were fixed in 4.0% paraformaldehyde for 15 minutes, and then incubated in 5% FBS and blocked for about 60 minutes. After washing with PBS, rhodamine-conjugated phalloidin (1:40) was added to each well to visualize a F-actin belt. After 20 minutes, the cells were incubated along with a DAPI (1:5000) solution for 5 minutes. After washing three times with PBS, cells were observed using a fluorescence microscope.
A F-actin size was measured using Image J.

[3] = system: osteoclast differentiation of monocytes isolated from the mouse bone marrow; test: Osteoclast differentiation inhibitory ability of 35D3 (PPOA) through TRAP staining and analysis; type: cell-based; conditions: 3 μM, compared to group in which osteoclasts were differentiated normally
Description: The bone marrow of a 12-week-old female mouse was isolated from the hip bone, femur and tibia, followed by culturing the same in α-MEM medium (Gibco, 12561-056, 10% fetal bovine serum, 1% penicillin/streptomycin) containing macrophage colony stimulating factor (M-CSF, PeproTech, cat #315-02, 30 ng/ml) for 3 days in order to isolate only monocytes. The isolated monocytes were treated with RANKL (PeproTech, cat #315-11, 50 ng/ml) to induce osteoclast differentiation. Then, 35D3 (PPOA) was also used for treatment, followed by culturing the cells for 3 days or 5 days.
1×10^4 monocytes isolated from the mouse bone marrow were put into a 96-well plate and treated with RANKL to confirm the effect of 35D3 (PPOA) (3 μM) on osteoclast differentiation ability.
The activity of tartrate-resistant acid phosphatase (TRAP), which has increased expression during osteoclast differentiation, was confirmed using a TRAP activity assay kit (Sigma-Aldrich, 387A-1kt), which is shown in FIG. 16.
After staining, the multinuclear cells formed during osteoclast differentiation were observed under a microscope, and 12 images per well were photographed and combined into one well image, and a differentiation area ratio per total area was confirmed using Image J software. The differentiation area ratio per total area is shown in A of FIG. 17, and the area of TRAP-positive cells (nuclear number >3) was compared with DMSO (100%) and presented as a relative value.
Further, the number of differentiated osteoclasts was counted and determined, and this was shown in B of FIG. 17, and cells in which the number of cell nuclei contained in the differentiated osteoclasts is in the range of 3-5, 6-10, 11-20, and 21 or more, were classified and shown in C of FIG. 17.

[4] = system: F-actin formation in mouse bone marrow cells; test: F-actin staining for differentiation into multinuclear cells, 35D3 (PPOA); type: cell-based; conditions: 6 uM, cultured 4 to 5 days; FIG. 18
Description: In order to determine the activity of differentiated osteoclasts, an ability of differentiating into multinuclear cells was measured through F-actin staining. 5×10^4 mouse bone marrow cells per well was put into a 24-well plate in which glass coated with L-Lysine was placed (Corning, 354085). At the same time, the cells were treated with 6 uM of 35D3 (PPOA) and then cultured for 4 to 5 days. The differentiated cells were fixed with 4% formaldehyde for 10 minutes and washed with PBS. For an antigen-antibody reaction, the cells were subjected to a reaction in 0.1% Triton-PBS for 20 minutes, followed by a reaction with 1% BSA for 1 hour. The F-actin antibody (Thermo Fisher Scientific, A12379) was reacted for 1 hour and then washed. Cell nuclei were stained through DAPI (4′,6-Diamidino-2-Phenylindole, Dilactate, Thermo Fisher Scientific, D3571) staining, and then, photographed under a microscope. As a result, it was confirmed that the size of F-actin was different depending on the presence or absence of 35D3 (PPOA) treatment (see FIG. 18).

[5] = system: bone resorption ability of osteoclasts (mouse bone marrow cells); test: Bone resorption assay kit, 35D3 (PPOA); type: cell-based; conditions: exposure to 3, 6, and 10 μM; FIG. 19
Description: Further, the bone resorption ability was confirmed using a bone resorption assay kit (Cosmo Bio, CSR-BRA). Mouse bone marrow cells were seeded on a bone resorption assay plate 48 (2×10^4 cells/well) containing 30 ng/Ml of M-CSF. […] The next day, the culture supernatant from the cells was collected on a 96-well black polypropylene micro-well plate (Thermo Fisher Scientific Nunc, Waltham, Md., USA). After mixing 50 μL of 0.1 N of NaOH, fluorescence intensity was measured with a fluorescence plate reader (Molecular Devices, San Jose, Calif., USA-model: SpectraMax i3x); and the excitation and emission wavelengths were […] and 535 nm, respectively. The absorption area was calculated in consideration of 10 randomly selected pictures per well taken at 10 magnification using Image J software (https://imagej.nih.gov/ij).

[6] = system: ovariectomized mouse model (OVX); test: Ovariectomized (OVX) mouse osteoporosis model, tibia micro-computed tomography; type: in vivo; conditions: OVX mice, intraperitoneal once every two days, after 4 weeks, microcomputer tomography; FIGS. 11 to 14
Description: An ovariectomized mouse model (OVX, ovariectomized mouse) with osteoporosis due to estrogen deficiency after ovariectomy in 8-week-old female mouse were prepared. Compounds (35D35, 35D5, and 35D3), respectively, were injected intraperitoneally once every two days to the ovariectomized mouse model. After 4 weeks, the tibia of each mouse was analyzed for bone density by microcomputer tomography.
FIGS. 11 to 14 show the micro-computed tomography results (Sham: the control in which the ovaries were not removed) and graphs for analysis of the micro-computed tomography results with regard to the tibia of the mouse models (*P<0.05, **P<0.01, and ***P<0.001 vs. the control, OVX. BMD: trabecular bone mineral density).

[7] = system: bone resorption ability of osteoclasts (BMM); test: Bone resorption assay kit (fluoresceinamine-labeled calcium phosphate plate); type: cell-based, mouse; conditions: 0.5 uM, 6 days, compared to control cells not treated (Ctrl); FIG. 7
Description: In addition, the bone resorption ability of 35D35 was measured using a bone resorption assay kit (Cosmo Bio, CSR-BRA). Specifically, BMM was seeded on a fluoresceinamine-labeled calcium phosphate plate, followed by 35D35 treatment with various doses. After 6 days, a fluorescence intensity was measured at absorption and emission wavelengths of 485 nm and 535 nm, respectively, using a fluorescent reader. Further, a resorption pit area was calculated using Image J. As a result, it was confirmed that the bone resorption ability was reduced by about 10% in the cells treated with 0.5 uM of 35D35, as compared to the control cells not treated with the compound (Ctrl) (see FIG. 7, scale bar=200 μm, “Con”=M-CSF+RANKL treatment group, “M”=M-CSF treatment group).

[8] = system: osteoclast-specific genes AcP5 (TRAP), NFATc1, DC-STAMP, ATP6v0d2, MMP9 and CTSK; test: RT-PCR of osteoclast-specific gene mRNA expression; type: cell-based, mouse; conditions: 1 μM, compared to the control not treated (Ctrl); FIG. 8
Description: (§1) In order to confirm the expression degree of the osteoclast-specific gene, an mRNA expression level was measured by RT-PCR in cells treated with 35D35 (1 μM) and 35D3 (6 μM) compounds, respectively. RNA was isolated from cells differentiated into osteoclasts using an RNA extraction kit, and cDNA was synthesized from 0.5 μg of RNA, which was quantified through a spectrophotometer, using a reverse transcriptase (Takara, RR037 A). Thereafter, QRT-PCR was performed using cDNA synthesized by QuantStudio 3 real-time PCR system (Applied Biosystems). After treating the cells with lysates, immunoblotting was conducted with an anti-Ctsk antibody. At this time, β-actin was used as a loading control.

[9] = system: Ctsk protein expression in osteoclasts; test: Immunoblotting with anti-Ctsk antibody; type: cell-based, mouse; conditions: 35D35 1 μM compared to 35D3 6 μM; FIG. 9
Description: as §1

[10] = system: hBMP2-induced osteoblast differentiation of precursor cells from mouse skull; test: ALP staining for analysis of osteoblast differentiation ability; type: cell-based, C57BL/6J mouse; conditions: hBMP2 100 ng/ml, 7 days; FIG. 10
Description: After collecting cells from C57BL/6J mouse calvara at the age of 3 days, the cells were seeded on a 96-well plate in an amount of 4×10^3 cells per well, and then treated with 100 ng/ml of hBMP2 as a differentiation inducer. Simultaneously with the differentiation inducer treatment, the cells were treated with the 35D35 compound and cultured for 7 days, followed by ALP staining to assess differentiation influence. Specific experimental methods and results are as follows.
Precursor cells isolated from the mouse skull were treated with hBMP2 (Bone morphogenic protein 2, Sino biological, 10426-HNAE, 100 ng/ml) to induce differentiation into osteoblasts. Differentiated osteoblasts could be discriminated through alkaline phosphatase (ALP) staining as an osteoblast-specific protein. When the progenitor cells were treated with hBMP2, each of the 35D35 compounds was also used for treatment, followed by culturing the cells for 7 days while changing the medium every 2 to 3 days. […]
After discarding the ethanol, the remaining product was washed with HBSS, followed by adding a NBT solution (Sigma, B1911) in an amount of 100 μl per well and staining for 15 minutes. […] After ALP staining, a degree of color development was measured using Image J software, and then graphed for comparison.

Compound	cytotoxicity (cell viability, apoptosis effects) (preosteoclasts)	degree of osteoclast differentiation by TRAP staining [1]	inhibition of RANKL-induced F-actin belt formation ([2]; 6 μM)	giant multinuclear cells ([3]; FIG. 17)	number of osteoclasts ([3]; FIG. 17)	differentiation area (TRAP-positive cells per total area) ([3]; FIGS. 16 and 17)	differentiation into multinuclear cells (size of F-actin) [4]	proportion of bone resorption area [5]	bone density of tibia vs control (OVX) [6]	bone volume of tibia vs control (OVX) [6]	osteoclast differentiation by exposure period (TRAP staining) ([1]; 1 μM for 24 hours on different days, 4 days culture with M-CSF and RANKL, exposure in initial 24 hours, FIG. 4)	osteoclast differentiation area ratio per total area (TRAP staining, Image J) ([1]; concentration of 0.5 uM, FIG. 2)	decrease of F-actin ring formation ability ([2]; 0.5 uM, F-actin size by Image J, FIG. 6) [%]	inhibition of RANKL-induced F-actin belt formation ([2]; 2 μM)	reduction of bone resorption ability [7]	amount of mRNA expression of osteoclast-specific genes AcP5 (TRAP), NFATc1, DC-STAMP, ATP6v0d2, MMP9 and CTSK [8]	Ctsk protein expression [9]	effect on osteoblast differentiation (ALP staining intensity) [10]
CC(=O)N1CCN(c2ccccc2NC(=O)COc2ccccc2Cl)CC1 [35D3, N-(2-(4-acetylpiperazin-1-yl)phenyl)-2-(2-chlorophenoxy)acetamide]	apoptosis effects were not exhibited	superior osteoclast differentiation inhibitory effects compared to other derivatives	excellent effects of inhibiting RANKL-induced F-actin belt formation	significantly reduced	significantly reduced	significantly reduced	could inhibit differentiation into multinuclear cells	significant decrease	did not exhibit higher	did not exhibit higher	–	–	–	–	–	–	–	–
CCC(=O)N1CCN(c2ccccc2NC(=O)COc2ccccc2Cl)CC1 [35D35, 2-(2-chlorophenoxy)-N-[2-(4-propionyl-1-piperazinyl)phenyl]acetamide]	apoptosis effects were not exhibited	superior osteoclast differentiation inhibitory effects compared to other derivatives	–	–	–	–	–	–	higher	higher	osteoclast differentiation was inhibited for the initial 24 hours	effective osteoclast differentiation inhibitory ability	≥ 50	excellent effects of inhibiting RANKL-induced F-actin belt formation	about 10%	decreased	strongly inhibited even at a low concentration	did not affect osteoblasts
